Measured values reported in patent publication US20220088024A1, “METHODS FOR TREATING CANCER USING TOZADENANT” (Biotie Therapies, Inc., priority 2018, published 2022).
Several values for one entry are separate records, joined by “and”; a condition that tells them apart may be missing. Equal entries are not always repeated.

Assays:
[1] = system: B16F10 CD73 melanoma metastases; assay: Example 8: number of lung tumor metastases in the B16F10 CD73 tumor mouse model; format: in vivo, C57/BL6 mice (A2A-/- or Wild-Type); conditions: 100 mg/kg once-daily oral gavage days 0 to 13, counted day 14, Batch 71236AA002
Procedure: The C57/BL6 mouse melanoma cell line B16F10 CD73 was cultured in DMEM supplemented with 10% FCS, GlutaMAX, and penicillin/streptomycin. Tumor cells are periodically verified to be Mycoplasma negative by the Victorian Infectious Diseases References
Lab (Melbourne, VIC, Australia) by PCR analysis. 2×10^5 cells were resuspended in PBS and injected i.v. into C57/BL6 mice (A2A^−/− or Wild-Type) in a 200 μL volume. At day 14, lungs were excised and the number of metastases counted under the dissecting microscope. Mice were dosed with either SYN-115 (Batch 71236AA002) at 100 mg/kg or vehicle control once-daily via oral gavage on days 0 to 13. To calculate a dose of SYN-115, mouse weight was estimated to be 20 g per mouse. Therefore, 100 mg/kg=2 mg per mouse in 200 μL, which is equivalent to 10 mg/ml. To make up 40 mL 400 milligrams of SYN-115 was weighed and added into a Falcon tube, then 1 mL of Tween 80 added and mixed into a paste and then 39 mL of 1% Methyl Cellulose was added. Solution was vortexed and then left on rotating mixer for at least 2 hours and maintained at 4° C.

[2] = system: CT26 colon carcinoma tumor; assay: Example 7: SYN-115 dose range as single agent in the CT26 tumor mouse model (tumor area, survival); format: in vivo, BALB/c mice; parameters: key: tumor area in mm^2 (width × length)
Procedure: The BALB/c mouse colon carcinoma cell line CT26 was cultured in RPMI supplemented with 10% FCS, GlutaMAX, and penicillin/streptomycin. Tumor cells are periodically verified to be Mycoplasma negative by the Victorian Infectious Diseases References Lab (Melbourne, VIC, Australia) by PCR analysis. 1×10^5 cells were resuspended in PBS and injected s.c. into BALB/c mice in a 100 μL volume. At day 7 tumors were measured and mice were randomized into distinct treatment groups to ensure that each group had tumors of similar size at the onset of treatment. Mice were treated with SYN-115 (Batch 71236AA006) at the indicated dose or vehicle control once-daily via oral gavage on days 7 to 20. To calculate a dose of SYN-115 mouse weight was estimated to be 20 g per mouse. Therefore, 100 mg/kg=2 mg per mouse in 200 μL, which is equivalent to 10 mg/ml. To make up 40 mL, 400 milligrams of SYN-115 was weighed and added into a Falcon tube, then 1 mL of Tween 80 was added and mixed into a paste and then 39 mL of 1% Methyl Cellulose was added. The solution was vortexed and then left on a rotating mixer for at least 2 hours and maintained at 4° C. Tumor measurements were taken 2-3 times per week. Tumor sizes were determined by width * length and mice were culled when tumors reached the ethical limit of 150 mm^2.

COc1ccc(N2CCOCC2)c2sc(NC(=O)N3CCC(C)(O)CC3)nc12 [SYN-115, 4-hydroxy-4-methyl-piperidine-1-carboxylic acid (4-methoxy-7-morpholin-4-yl-benzothiazol-2-yl)-amide]
Number of Tumor Metastases (lung), individual mice [1]: 21 and 1 (2×) and 5 and 11 and 13 and 28 and 2 and 8 | Tumor area, individual mice ([2]; SYN-115 10 mg/kg, Day 0, 10 mg/kg): 4.86 and 6.44 and 7.56 and 8.37 and 8.84 and 11.2 | Tumor area, individual mice ([2]; SYN-115 10 mg/kg, Day 2, 10 mg/kg): 6.16 and 6.75 and 7.36 and 15.2 and 9.45 and 14.06 | Tumor area, individual mice ([2]; SYN-115 10 mg/kg, Day 4, 10 mg/kg): 15.75 and 12.16 and 22.55 and 23.52 and 8.36 and 26.95 | Tumor area, individual mice ([2]; SYN-115 10 mg/kg, Day 7, 10 mg/kg): 20.7 and 14.04 and 41.44 and 34.77 and 6.24 and 46.92 | Tumor area, individual mice ([2]; SYN-115 10 mg/kg, Day 9, 10 mg/kg): 30.53 and 22.09 and 52.08 and 50.37 and 0 and 66.99 | Tumor area, individual mice ([2]; SYN-115 10 mg/kg, Day 11, 10 mg/kg): 44.1 and 31.32 and 70.68 and 66.42 and 0 and 89.24 | Tumor area, individual mice ([2]; SYN-115 10 mg/kg, Day 14, 10 mg/kg): 52.8 and 48.96 and 108.1 and 114.45 and 0 and 125.08 | Tumor area, individual mice ([2]; SYN-115 10 mg/kg, Day 16, 10 mg/kg): 91.44 and 67.86 and 132.84 and 135.42 and 0 and 179.55 | Tumor area, individual mice ([2]; SYN-115 10 mg/kg, Day 18, 10 mg/kg): 136.71 and 100.98 and 202.5 and 119.88 and 0 | Tumor area, individual mice ([2]; SYN-115 10 mg/kg, Day 21, 10 mg/kg): 175.74 and 162 and 160 and 0 | Tumor area, individual mice ([2]; SYN-115 10 mg/kg, Day 25): 0 | Tumor area, individual mice ([2]; SYN-115 10 mg/kg, Day 29): 0 | Tumor area, individual mice ([2]; SYN-115 10 mg/kg, Day 32): 0 | Tumor area, individual mice ([2]; SYN-115 10 mg/kg, Day 35): 0 | Tumor area, individual mice ([2]; SYN-115 10 mg/kg, Day 37): 0 | Tumor area, individual mice ([2]; SYN-115 30 mg/kg, Day 0, 30 mg/kg): 5 (2×) and 6.24 and 7.56 and 8.7 and 12.48 | Tumor area, individual mice ([2]; SYN-115 30 mg/kg, Day 2, 30 mg/kg): 12.6 (2×) and 8.12 and 9.28 and 12.95 and 8.4 | Tumor area, individual mice ([2]; SYN-115 30 mg/kg, Day 4, 30 mg/kg): 21.6 (2×) and 15.96 and 13.65 and 24.48 and 10.56 | Tumor area, individual mice ([2]; SYN-115 30 mg/kg, Day 7, 30 mg/kg): 42.21 (2×) and 25 and 25.5 and 30.21 and 30.24 | Tumor area, individual mice ([2]; SYN-115 30 mg/kg, Day 9, 30 mg/kg): 50.16 (2×) and 35.4 and 29.68 and 47.61 and 31.9 | Tumor area, individual mice ([2]; SYN-115 30 mg/kg, Day 18, 30 mg/kg): 204.8 (2×) and 114 and 189.23 and 202.86 and 125.4 | Tumor area, individual mice ([2]; SYN-115 30 mg/kg, Day 21, 30 mg/kg): 153.4 and 179.4 | Raw Tumor Measurements ([2]; SYN-115 (1 mg/kg), Day 0, 1 mg/kg): 5.25 and 6.72 and 8.37 and 7.84 and 9.6 and 10.36 | Raw Tumor Measurements ([2]; SYN-115 (1 mg/kg), Day 2, 1 mg/kg): 12.95 and 12.54 and 15.6 and 13.6 and 12.71 and 15.84 | Raw Tumor Measurements ([2]; SYN-115 (1 mg/kg), Day 4, 1 mg/kg): 14.8 and 22.95 and 21 and 24.99 and 20.4 and 24.19 | Raw Tumor Measurements ([2]; SYN-115 (1 mg/kg), Day 16, 1 mg/kg): 144.1 and 103.55 and 103.74 and 155.61 | Raw Tumor Measurements ([2]; SYN-115 (1 mg/kg), Day 18, 1 mg/kg): 208.68 and 167.24 and 138.6 | Raw Tumor Measurements ([2]; SYN-115 (1 mg/kg), Day 21): 173.46 | Raw Tumor Measurements ([2]; SYN-115 (5 mg/kg), Day 0, 5 mg/kg): 4.8 and 7.8 and 7.54 and 8.84 | Raw Tumor Measurements ([2]; SYN-115 (5 mg/kg), Day 2, 5 mg/kg): 13.12 and 11.16 and 13.26 and 10.36 | Raw Tumor Measurements ([2]; SYN-115 (5 mg/kg), Day 4, 5 mg/kg): 20.8 and 11.2 and 18.45 and 19.52 | Raw Tumor Measurements ([2]; SYN-115 (5 mg/kg), Day 25, 5 mg/kg): 163.8 and 83.52 | Raw Tumor Measurements ([2]; SYN-115 (5 mg/kg), Day 29): 101.76 | Raw Tumor Measurements ([2]; SYN-115 (5 mg/kg), Day 32): 124.74 | Raw Tumor Measurements ([2]; SYN-115 (5 mg/kg), Day 35): 146.52 | Raw Tumor Measurements ([2]; SYN-115 (5 mg/kg), Day 37): 161.59
